In US20170370933A1, “METHODS AND COMPOSITIONS FOR IMMUNOMODULATION” (Nodality, Inc., priority 2013, published 2017):
“Also recorded” adds a separate entry of the source.

Key:
TGFb modulated signaling = assay: in vitro Fresolimumab on TGFb modulated signaling in breast cancer samples; type: cell-based, human
Experimental: (§1) In this Example, samples of peripheral blood mononuclear cells (PBMCs) from breast cancer patients and from healthy donors were analyzed for IMR expression and by single cell network profiling, both modulated and unmodulated. Samples were taken before and after treatment in the breast cancer patients. IMR expression was profiled and correlated with immune signaling; differences in immune signaling by SCNP in pre- and post-treatment samples was investigated; the in vitro effects of immune checkpoint inhibitors on signaling in pre- and post-treatment samples was investigated; and the in vitro effects of Fresolimumab on TGFb modulated signaling in pre-treatment samples was profiled.

breast cancer patients = assay: clinical study NCT01401062, Fresolimumab with radiotherapy in breast cancer: PBMC IMR expression, signaling, response; type: in vivo, human
Experimental: (§2) PBMC samples were collected from 7 healthy donors and 15 breast cancer patients enrolled in a clinical study NCT01401062, evaluating Fresolimumab (anti-TGF □) at 1 or 10 mg/kg IV in combination with radiotherapy (RT). Samples were cryopreserved then prepped and analyzed. Breast cancer donor samples were pre- and post-treatment. Basal expression of immunomodulatory receptors (IMRs) and short term signaling in response to modulation were profiled. Signaling following exposure to in vitro chemotherapeutic agents was also examined. Response to therapy in this trial was poor and therefore associations with clinical reponse was observational only.
Analysis of IMR expression and SCNP (modulated and unmodulated) was performed as detailed in previous Examples and in the specification.

[1] = test system: p-STAT1, p-STAT3, p-STAT5 in whole blood cell subsets; assay: SCNP of cytokine-induced JAK/STAT signaling in whole blood of healthy donors; type: cell-based, human
Experimental: Method: Whole blood from 11 healthy donors (20-65 yrs, 7 males, 4 females, 8 Caucasians, 2 Hispanics, 1 East Asian) was stimulated at 37° C. in 96-well plates with a low, medium, and high dose of GM-CSF, IFN-α, IL-27 and IL-6, each added separately, as described in Example 5. For each dose, a stimulation time course was run with 6 time points between 3 and 45 minutes. […] The SCNP assay was performed using a fluorophore-labeled antibody cocktail to simultaneously measure signaling in six distinct cell populations, including: neutrophils, CD20+ B cells, CD3+CD4+ T cells, CD3+CD4− T cells (CD8 enriched), CD3−CD20− lymphocytes (NK cell enriched), and CD14+ monocytes. The median fluorescent intensity of phospho (p)-STAT1(Y701), p-STAT3(Y705), and p-STAT5(Y694) were measured in each defined cell population for each experimental condition.
Kinetic response to varying concentrations of modulators was investigated in normal samples (i.e. samples from persons who have no diagnosis of disease). 11 normal samples were donated with informed consent by Nodality Inc. employees and processed at Nodality Inc. in South San Francisco, Calif. The samples were treated with 4 different modulators (GM-CSF, IL-27, IFNa and IL-6) at 4 different concentrations of the modulator and activation levels of pStat1, pStat3 and pStat5 were measured at different time points. Activation levels were measured at 3, 5, 10, 15, 30 and 45 minutes using flow cytometry-based single cell network profiling. The concentrations of the stimulators are tabulated below:
Activation levels of different cell surface markers were also profiled using single cell network profiling and used in conjunction with gating to segregate the cells into discrete cell populations. In the gating analysis, SSC-A and FSC-A were first used to segregate lymphocytes from non-lymphocytes. CD14 and CD4 were then used to segregate the non-lymphocytes into populations of neutrophils and CD14+ cells (monocytes). CD3 and CD20 were then used to segregate the lymphocytes into populations of CD20+(B Cells), CD3+(T Cells) and CD20-CD3-cells. CD4 was used to segregate the CD3+ T cells into populations of CD3+CD4- and CD3+CD4+ T cells.

[2] = test system: p-Stat1, p-Stat3, p-Stat4, p-Stat5, p-Stat6, p-p38 in PBMC subsets; assay: SCNP of IFN-α signaling in PBMC from healthy donors; type: cell-based, human
Experimental: Methods: IFN-α-mediated signaling responses were measured by SCNP in PBMC samples from 12 healthy donors. PBMCs were processed for flow cytometry by fixation and permeabilization followed by incubation with fluorochrome-conjugated antibodies that recognize extracellular lineage markers and intracellular signaling molecules. The levels of several phospho-proteins (p-Stat1, p-Stat3, p-Stat4, p-Stat5, p-Stat6, and p-p38) were measured in multiple cell populations (CD14+ monocytes, CD20+ B cells, CD4+CD3+ T cells, and CD4−CD3+ T cells) at 15 minutes, 1, 2 and 4 hours post IFN-α exposure as described in Example 6.

[3] = test system: TCR→p-ERK/p-AKT in T cells; assay: in vitro Keytruda effect on TCR signaling in PBMC of breast cancer patients and healthy donors; type: cell-based, human
Experimental: as §1
as §2, with “Signaling following exposure to in vitro chemotherapeutic agents was also examined. Response to therapy in this trial was poor and therefore associations with clinical reponse was observational only.” left out
In addition, T cell receptor (TCR) signaling was studied using SCNP. The TCR was stimulated, as described elsewhere herein, and downstream readouts, in particular, p-ERK and p-AKT, p-PLCg2, p-CD3z, p-s6, and IkB were measured.

[4] = test system: immune signaling pathways in PBMC subsets; assay: SCNP of PBMC from melanoma patients pre- and post-ipilimumab treatment; type: in vivo, human; details: for IL-15→p-STAT5 signaling in post-treatment samples: CD4− T cells, vs healthy and untreated donor samples
Experimental: Methods: 3 healthy and 13 melanoma patient cryopreserved samples, including 7 collected pre-treatment, and 6 collected post-treatment, were analyzed by SCNP. […] Cells were assessed for viability, cell subset frequencies and signaling in response to different modulators. A node is defined as combination of modulator and intracellular readout (e.g. IL-6→p-STAT3). Cytokine and TCR- or Fc[…]R-induced activation of STAT1, 3, 5, CD3 □ and Erk was evaluated in multiple immune cell populations and comparisons made based on disease, treatment time point and clinical responses.

[5] = test system: CTLA-4 interaction with CD80/86 in T cells; assay: in vitro T cell activation on αCD3-coated plate with ipilimumab, 48 hr; type: cell-based; details: PBMCs on αCD3-coated plate, vs isotype control
Experimental: In this example, PBMCs were added to a αCD3-coated plate to induce T cell activation, then ipilimumab was added to block CTLA-4 interaction with CD80/86. Isotype control was added to a reference well. The cells were incubated at 37° C. for 48 hr, then fixed, permeabilized, stained, and data acquired as described in the Examples above. Cells were gated by CD3, CD4, and CD8, and the readouts were IL-2, TNF-α, Cyclin A2, and CTLA-4. Ipilimumab augmented CTLA-4 upregulation, cytokine production, and proliferation.

metastatic melanoma = details: ipilimumab alone compared to gp100 vaccine alone; previously treated metastatic melanoma; p=0.003; cited from earlier work
[6] = IL-6 stimulation, CD4+ T cells and monocytes, whole blood

Fresolimumab: anti-TGF, a TGFb inhibitor
in vitro Fresolimumab activity (TGFb modulated signaling): weak
response to therapy (breast cancer patients; Fresolimumab in combination with radiotherapy): poor
PD-L1 expression in NK cells over the course of treatment (breast cancer patients; breast cancer patients' PBMC): trend was observed toward increasing PD-L1 expression
TIM-3 expression in monocytes with treatment (breast cancer patients; breast cancer patients' PBMC): decrease in TIM-3 expression
IMR expression patterns by dose (breast cancer patients; higher dose (1 or 10 mg/kg IV) of Fresolimumab, patient PBMC): trend toward higher IMR expression patterns
TCR mediated signaling by dose (breast cancer patients; higher dose of Fresolimumab, patient PBMC): trend toward reduced TCR mediated signaling

GM-CSF: cytokine modulator
GM-CSF→p-STAT5 signal termination ([1]; monocytes, neutrophils maintained persistent p-STAT5): efficient signal termination in monocytes

IFN-α
activation of p-Stat4 ([2]; PBMC subsets): detected in T cell subsets (both CD4+ and CD4− T cells), but not in monocytes or B cells
time of peak response for activation of p-Stat4, p-Stat6, p-p38 ([2]; majority of cell types, PBMC): 1 h
time of peak response for activation of p-Stat1, p-Stat3, p-Stat5 ([2]; most cell types, PBMC): 15 min
time of peak activation of all 3 STAT proteins ([1]; IFN-α stimulation, all cell subsets): 10 min
signaling resolution in monocytes ([1]; IFN-α, signal sustained in all other subsets): almost complete at 45 minutes

IL-6: cytokine modulator
time at which signal resolution fell to baseline levels ([1]; IL-6, monocytes (CD4+ T cells sustained)): 45 min
time of peak p-STAT1 and p-STAT5 [1, 6]: 10 to 15 min
time of peak p-STAT3 levels [1, 6]: 3 min
IL-6 induced activation in neutrophils ([1]; compared to CD4+ T cells and monocytes): very low
cell subsets showing induced signaling ([1]; whole blood, six cell populations): only observed in CD4+ T cells and monocytes

Keytruda: checkpoint blockade agent that reduces communication through the PD-1 pathway
effect on TCR signaling (p-ERK and p-AKT readouts) ([3]; PD-1 negative (low PD-1 expression)): no effect
effect on TCR signaling (p-ERK and p-AKT readouts) ([3]; PD-1 positive (high expression) T cells): clear trend toward an increase in signaling; also recorded: increased TCR→AKT and p-ERK

ipilimumab: fully human monoclonal antibody that blocks cytotoxic T-lymphocyte-associated antigen 4 (CTLA-4)-mediated T-cell suppression
IL-15→p-STAT5 signaling in post-treatment samples [4]: diminished
IL-15→p-STAT5 signaling in post-treatment samples ([4]; listed as Ipilimumab): reduced IL-15→p-STAT5 signaling
TCR→p-Erk, TCR→p-CD3z signaling in post-treatment samples ([4]; CD45RA+ but not CD45RA− CD4+ and CD4− subsets, vs healthy donors and pre-treatment melanoma samples): diminished
CTLA-4 upregulation [5]: augmented
cytokine production (IL-2, TNF-α) [5]: augmented
proliferation (Cyclin A2) [5]: augmented
hazard ratio for death (metastatic melanoma): 0.66
